Assays:
Assay type in all cases: cell-based
Colo205 = experiment: CellTiter-Glo cell viability, IC50 determination; conditions: Homo sapiens, COLO 205, 72 h; Colo205 cell line; 3-day CTG assay; read-out: Absolute IC50
Experimental: (§1) All the cells will be cultured in the media supplemented with 10% FBS except for which are marked specially, in the temperature of 37° C., 5% CO2 and 95% humidity.
(§2) Cell viability is assayed by using CellTiter-Glo® Luminescent Cell Viability Assay Kit (Cat. No.: G7572, Promega. Store at −20° C.). To prepare the CellTiter_Glo Reagent, the CellTiter-Glo Buffer was thawed and equilibrated to room temperature prior to use. For convenience the CellTiter-Glo Buffer may be thawed and stored at room temperature for up to 48 hours prior to use. The lyophilized CellTiter-Glo Substrate is equilibrated to room temperature prior to use. The appropriate volume (100 ml) of CellTiter-Glo Buffer is transferred into the amber bottle containing CellTiter-Glo Substrate to reconstitute the lyophilized enzyme/substrate mixture, which forms the CellTiter-Glo Reagent. In certain cases, the entire liquid volume of the CellTiter-Glo Buffer bottle may be added to the CellTiter-Glo Substrate vial. Mix by gently vortexing, swirling or by inverting the contents to obtain a homogeneous solution. The CellTiter-Glo Substrate should go into solution easily in less than one minute.
(§3) The day before the experiment (Day −1), cells were dissociated during the logarithmic growth period with Cell Disassociation Buffer (Gibco 13151-014) and mixed with appropriate cell media and centrifuge at 1000 rpm for 3 minutes. The cells were re-suspended and counted using Countstar before adjusting cell concentrations to optimized density (i.e. 4.44×10^4 cells/ml) with respective culture medium listed in Table 1 for 3-day CTG assay (The cell density was optimized before actual study; cell density used in the test may vary for different cell lines). 90 μl cell suspensions were added to two 96-well plates (plates A and B) with the final cell density of 4×10^3 cells/well for 3-day CTG assay (the cell density was optimized before actual study; cell density used in the test may vary for different cell lines). The plate A and B group were incubated for overnight in humidified incubator at 37° C. with 5% CO2.
(§4) On Day 0, for plate A group, 10 μl culture medium was added to each well for T0 reading. CellTiter-Glo® Reagent was added at equal volume of cell culture medium present in each well (e.g., add 100 μl of reagent to 100 μl of medium containing cells for a 96-well plate). Contents were mixed for 2 minutes on an orbital shaker to facilitate cell lysis. The plate was allowed to incubate at room temperature for 10 minutes to stabilize luminescent signal. Backseal black sticker was added to the bottom of each plate. Luminescence was recorded using EnVision Multi Label Reader. This formed the basis for T0 value.
(§5) On Day 0, the test articles and positive controls were dissolved at the concentration indicated at Test Article Dilution map. 100× solution in PBS was prepared and then diluted with appropriate culture media (1:10) into 10×working solutions. 10 μl (10×) drug solutions were dispensed in each well (triplicate for each drug concentration) of the plate B group according to plate inoculation map. The test plates were incubated for […] in the humidified incubator at 37° with 5% CO2.
(§6) On Day 3, CellTiter-Glo® Reagent was added at equal volume of cell culture medium present in each well (e.g., add 100 μl of reagent to 100 μl of medium containing cells for a 96-well plate). Contents were mixed for 2 minutes on an orbital shaker to induce cell lysis. The plate was allowed to incubate at room temperature for 10 minutes to stabilize luminescent signal. Backseal black sticker was placed to the bottom of each plate. Luminescence was recorded using EnVision Multi Label Reader.
(§7) In order to calculate IC50s, a dose-response curve was fitted using a nonlinear regression model with a sigmoidal dose response. The formula for calculating surviving rate was shown below; Absolute IC50 is calculated where Y axis set at 50% using GraphPad Prism 5.0. Software. […]

HepG2 = experiment: CellTiter-Glo cell viability, IC50 determination; conditions: Homo sapiens, 72 h; HepG2 cell line; 3-day CTG assay; read-out: Absolute IC50
Experimental: as §1, §2, §3, §4, §5, §6, §7

NCI-H460 = experiment: CellTiter-Glo cell viability, IC50 determination; conditions: Homo sapiens, 72 h; NCI-H460 cell line; 3-day CTG assay; read-out: Absolute IC50
Experimental: as §1, §2, §3, §4, §5, §6, §7

PC-3 = experiment: CellTiter-Glo cell viability, IC50 determination; conditions: Homo sapiens, 72 h; PC-3 cell line; 3-day CTG assay; read-out: Absolute IC50
Experimental: as §1, §2, §3, §4, §5, §6, §7

SK-LU-1 = experiment: CellTiter-Glo cell viability, IC50 determination; conditions: Homo sapiens, 72 h; SK-LU-1 cell line; 3-day CTG assay; read-out: Absolute IC50
Experimental: as §1, §2, §3, §4, §5, §6, §7

panel of 50 cell lines = experiment: Sensitivity of cell line panel by gene mutation status
Description: We examined the anti-proliferation activity of a MEK inhibitor, trametinib, and an ERK1/2 inhibitor, SCH772984, in a panel of […] (see Table 1).
We divided the 63 cell lines into sensitive, insensitive, and uncertain groups according to their IC50's for SCH772984 and Trametinib, respectively, then detected genes with differential expression or different mutation types between sensitive and insensitive groups. These genes were enriched in several cancer related pathways.
The 63 cell lines were divided into 3 groups (See Table 1): a sensitive group (IC50 values were less than 1), an insensitive group (IC50 values are greater than 10), and an uncertain group (the rest). Accordingly, we got 25 sensitive and 22 insensitive cell lines for SCH772984, and 34 sensitive and 24 insensitive cell lines for Trametinib. Only cell lines with genomic data were used in subsequent analysis. The differentially expressed genes and enriched pathways were analysed using GSEA software, the genes with different mutation types were detected using Fisher's exact test.
29 sensitive and 20 insensitive cell lines have mutation information, and ADAM12, COL14A1, TNN and TP53 were identified by P-value cutoff of 0.01 (See Table 3 and FIG. 1-5).
21 sensitive and 18 insensitive cell lines have mutation information, and ADAM12, PEX5L, TNN and TP53 were identified by P-value cutoff of 0.01 (See Table 3 and FIGS. 6-10).

NCI-H1155 = experiment: CellTiter-Glo cell viability, IC50 determination; conditions: Homo sapiens, 72 h; NCI-H1155 cell line; 3-day CTG assay; read-out: Absolute IC50
Experimental: as §1, §2, §3, §4, §5, §6, §7

NCI-H1703 = experiment: CellTiter-Glo cell viability, IC50 determination; conditions: Homo sapiens, 72 h; NCI-H1703 cell line; 3-day CTG assay; read-out: Absolute IC50
Experimental: as §1, §2, §3, §4, §5, §6, §7

NCI-H441 = experiment: CellTiter-Glo cell viability, IC50 determination; conditions: Homo sapiens, 72 h; NCI-H441 cell line; 3-day CTG assay; read-out: Absolute IC50
Experimental: as §1, §2, §3, §4, §5, §6, §7

SW480 = experiment: CellTiter-Glo cell viability, IC50 determination; conditions: Homo sapiens, 72 h; SW480 cell line; 3-day CTG assay; read-out: Absolute IC50
Experimental: as §1, §2, §3, §4, §5, §6, §7

[1] = cells harboring mutations in ADAM12 gene
[2] = cells harboring mutations in TNN gene
[3] = cells harboring mutations in TP53 gene

SMILES | IC50 (Colo205) [µM] | IC50 (HepG2) [µM] | IC50 (NCI-H460) [µM] | IC50 (PC-3) [µM] | IC50 (SK-LU-1) [µM] | sensitivity to inhibitor in cells harboring mutations (panel of 50 cell lines; cells harboring multiple mutations in ADAM 12, PEX5L, TNN and TP53 gene) | sensitivity to inhibitor in cells harboring mutations (panel of 50 cell lines; [1]) | sensitivity to inhibitor in cells harboring mutations (panel of 50 cell lines; cells harboring mutations in PEX5L gene) | sensitivity to inhibitor in cells harboring mutations (panel of 50 cell lines; [2]) | sensitivity to inhibitor in cells harboring mutations (panel of 50 cell lines; [3]) | IC50 (NCI-H1155) [µM] | IC50 (NCI-H1703) [µM] | IC50 (NCI-H441) [µM] | IC50 (SW480) [µM] | sensitivity to inhibitor in cells harboring mutations (panel of 50 cell lines; cells harboring multiple mutations in ADAM12, COL14A1, TNN, and TP53 gene) | sensitivity to inhibitor in cells harboring mutations (panel of 50 cell lines; cells harboring mutations in COL14A1 gene)
O=C(Nc1ccc2[nH]nc(-c3ccncc3)c2c1)[C@@H]1CCN(CC(=O)N2CCN(c3ccc(-c4ncccn4)cc3)CC2)C1 [SCH772984, (R)-1-(2-oxo-2-(4-(4-(pyrimidin-2-yl)phenyl)piperazin-1-yl)ethyl)-N-(3-(pyridin-4-yl)-1H-indazol-5-yl)pyrrolidine-3-carboxamide] | 0.04 | 0.13 | 5.53 | 14.3 | 4.69 | increased sensitivity | increased sensitivity | increased sensitivity | increased sensitivity | increased sensitivity |  |  |  |  |  | 
CC(=O)Nc1cccc(-n2c(=O)n(C3CC3)c(=O)c3c(Nc4ccc(I)cc4F)n(C)c(=O)c(C)c32)c1 [Trametinib, N-(3-{3-Cyclopropyl-5-[(2-fluoro-4-iodophenyl)amino]-6,8-dimethyl-2,4,7-trioxo-3,4,6,7-tetrahydropyrido[4,3-d]pyrimidin-1(2H)-yl}phenyl)acetamide] |  |  |  |  |  |  | increased sensitivity |  | increased sensitivity | increased sensitivity | 636 | 15 | 325 | 6.65 | increased sensitivity | decreased sensitivity

From patent publication US10501805B2, “Methods for determining responsiveness to MEK/ERK inhibitors” (CROWN BIOSCIENCE, INC. (TAICANG), priority 2014, dated 2019)
